pEC50: −log10 of the molar value. Peptide text beside a SMILES is read from it.
What was measured:
[1] = target: T1, C. maenas RPCHR (red pigment concentrating hormone receptor) (Carcinus maenas, UniProt A0A2L0WQF2); assay: Aequorin luminescence Ca2+ mobilization in CHO-K1-Aeq cells transiently expressing RPCHR; assay type: cell-based; details: for pEC50: CHO-K1-Aeq cells (without Gα16) transiently expressing RPCHR, luminescence response normalized to total Ca2+ response, dose response curves, means of n = 4; for binding to / activation of RPCHR: micromolar concentrations
T1 sequence (A0A2L0WQF2 1-529): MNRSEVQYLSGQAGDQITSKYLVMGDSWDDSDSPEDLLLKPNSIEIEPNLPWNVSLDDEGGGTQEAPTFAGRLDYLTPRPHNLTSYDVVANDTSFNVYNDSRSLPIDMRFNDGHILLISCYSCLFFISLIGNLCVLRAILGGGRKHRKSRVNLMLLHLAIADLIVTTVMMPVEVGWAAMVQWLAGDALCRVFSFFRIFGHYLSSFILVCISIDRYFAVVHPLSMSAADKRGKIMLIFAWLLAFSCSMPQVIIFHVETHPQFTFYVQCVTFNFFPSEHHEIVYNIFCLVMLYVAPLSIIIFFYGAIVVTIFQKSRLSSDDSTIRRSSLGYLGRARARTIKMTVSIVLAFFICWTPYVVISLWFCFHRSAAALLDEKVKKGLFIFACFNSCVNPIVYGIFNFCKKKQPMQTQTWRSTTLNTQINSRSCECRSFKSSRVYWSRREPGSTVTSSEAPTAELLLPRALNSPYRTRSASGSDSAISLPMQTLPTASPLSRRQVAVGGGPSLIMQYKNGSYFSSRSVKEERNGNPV
Method: (§1) Chinese hamster ovary (CHO-K1) cells containing stably expressed apoaequorin (Perkin Elmer, Boston, MA) and either Gα16 or Gq subunit (control cells) were cultured in Dulbecco's Modified Eagle Medium (DMEM) F-12 Nutrient Mixture GlutaMax (Gibco®) supplemented with 10% fetal bovine serum (Gibco®). Cells were maintained in vented T75 flasks at 37°C in 5% CO2.
(§2) Cells grown in a monolayer to approximately 60% confluency in T75 flasks were transfected with pcDNA3.1 constructs using FugeneHD (Promega) according to the manufacturer's recommendations. Briefly, transfection medium was prepared by combining 800 μl Opti-MEM® (Gibco) with 10 μg vector and 30 μl Fugene HD in a 2 ml polystyrene tube and incubated for 10 min at room temperature. The transfection reagent was added to 5 ml of fresh culture media and the cells incubated overnight at 37°C in 5% CO2. After 24 h, an additional 10 ml of culture media were added to the flasks and the cells returned to 37°C at 5% CO2 for a further overnight incubation.
(§3) On the day of the assay, cells were detached from the culture flask by incubating for 12 min in 5 ml 0.2% EDTA in PBS. The cells were washed with 10 ml DMEM clear DMEM/F-12 containing L-glutamine, 15 mM HEPES and moved to 50 ml centrifuge tubes. Cells were centrifuged for 5 min at 260 g and resuspended to a concentration of 5 × 10^6 cells ml^−1 in 0.2 μm filtered BSA medium (DMEM/F-12 containing L-glutamine, 15 mM HEPES + 0.1% BSA). Coelenterazine h (Invitrogen, Paisley, UK) was added to a concentration of 5 μM and the cells incubated for 4 h in the dark at room temperature whilst gently rocking. The cells were diluted 10-fold and incubated for a further 60 min before use in the assay. Synthetic peptides (GeneCust, Dudelange, Luxembourg) were reconstituted in 30% acetonitrile, dried in small aliquots by vacuum centrifugation and subsequently redissolved in BSA medium. Fifty microliter aliquots were then dispensed into quadruplicate wells of a white 96-well plate (OptiPlate, PerkinElmer). Cell suspensions were gently stirred and injected in 50 μl aliquots into each well using a Mithras LB 940 microplate reader (Berthold Technologies, Bad-Wildbad, Germany) and light emission (Ca^2+ response) recorded for 30 s. Cells were then lysed by injection of 0.3% Triton-X in BSA medium and light emission recorded for a further 10 s to measure total Ca^2+ response. BSA medium was used for blank measurements (6 replicate wells per plate) and mock transfection with empty vectors carried out for negative controls. Data was analyzed using MikroWin v5.18 (Mikrotek Laborsysteme GmbH) and SigmaPlot v.13 (Systat Software, Inc.). Receptor response was normalized against total Ca^2+ response.

[2] = tested on: red and black epidermal chromatophores, dactyl of the 5th walking leg; assay: Chromatophore pigment migration bioassay in vivo; set-up: species or system Carcinus maenas; details: for pigment migration (concentration) in red and black epidermal chromatophores: injection after 40 min dispersion with 5 pmol PDH, 0.1–100 pmol/crab for RPCH or AKH, 100 pmol/crab for CRZ or ACP, scored 5 and 20 min after injection
Method: Pigmentary effector activity of […], Locusta migratoria AKH-I, and ACP were measured in vivo, using small (15-20 mm carapace width) C. maenas. Crabs were firstly adapted to a white background, light intensity 300 lx for 1 h. Pigment dispersion of red and black chromatophores in the […] of the 5th walking leg were microscopically observed and indices of dispersion scored according to Hogben and Slome ([1931]). Red and black chromatophores were firstly fully dispersed by injection of 5 pmol C. maenas pigment dispersing hormone ([…]) in 10 μl saline into the hypobranchial sinus, using hand-drawn glass microcapillaries. Chromatophore dispersion indices were scored at 0, 20, 40 min. Peptides were then injected and chromatophores subsequently scored after 5 and 20 min.

semi-isolated heart = assay: Cardioactivity on semi-isolated heart preparations; set-up: species or system Carcinus maenas; details: superfusion
Method: Cardioactivity of […], and ACP was performed on semi-isolated heart preparations of C. maenas. Crabs (ca. 65 mm carapace width) were ice-anesthetized and rapidly decerebrated before removing all limbs and the dorsal carapace to expose the heart and pericardial cavity. The heart was connected to a force transducer (MLT0210/A) via a micro fishing hook (size 28) and fine nylon (0.08 mm) monofilament. Connection to a PC with Chart 4.0 was via a Bridge Pod (ML301) and Powerlab 4/20 (AD Instruments Pty Ltd, Castle Hill, NSW, Australia). Transducer gain was set at maximum sensitivity (200 μV). Heart preparations were initially perfused with C. maenas physiological saline (Saver et al., [1999]) at room temperature (20°C). Once a stable heart output was achieved, hearts were firstly perfused with 1 ml saline, followed by increasing concentrations of peptides, applied in 1 ml. Crustacean cardioactive peptide (CCAP) (Bachem, Bubendorf, Switzerland), or proctolin (Sigma, Poole, UK) were positive controls (10^-11-10^-7 M). Test peptides ([…]) were perfused at 10^-8-10^-6 M for approximately 2 min at each concentration.

[3] = Hemolymph triglyceride levels after peptide injection; assay type: in vivo, Carcinus maenas
Method: (§4) Adipokinetic and glucose mobilizing activity of […] and ACP were performed by measurement of triglycerides in hemolymph ([…] et al., [2014]) and glucose (Chung and Webster, [1996]). Hemolymph samples (ca. 100 μl) were taken from crabs injected with each peptide at 0 and 90 min, and subsequently assayed.

[4] = Hemolymph glucose levels after peptide injection; assay type: in vivo, Carcinus maenas; details: injection 100, 10 pmol per crab
Method: as §4

[5] = tested on: putative adipokinetic hormone/corazonin-related peptide receptor (ACPR); assay: Receptor assay with putative ACPR; assay type: cell-based, Carcinus maenas
Method: as §1
Cells grown in a monolayer to approximately 60% confluency in T75 flasks were transfected with pcDNA3.1 constructs using FugeneHD (Promega) according to the manufacturer's recommendations. Briefly, transfection medium was prepared by combining 800 μl Opti-MEM® (Gibco) with 10 μg vector and 30 μl Fugene HD in a 2 ml polystyrene tube and incubated for 10 min at room temperature. […]
On the day of the assay, cells were detached from the culture flask by incubating for 12 min in 5 ml 0.2% EDTA in PBS. […] Cell suspensions were gently stirred and injected in 50 μl aliquots into each well using a Mithras LB 940 microplate reader (Berthold Technologies, Bad-Wildbad, Germany) and light emission (Ca^2+ response) recorded for 30 s. Cells were then lysed by injection of 0.3% Triton-X in BSA medium and light emission recorded for a further 10 s to measure total Ca^2+ response. […] Data was analyzed using MikroWin v5.18 (Mikrotek Laborsysteme GmbH) and SigmaPlot v.13 (Systat Software, Inc.). […]

[6] = Hemolymph triglyceride levels after peptide injection; assay type: in vivo, Carcinus maenas; details: lipid mobilization bioassay
[7] = target: T2, C. maenas CRZR (corazonin receptor) (Carcinus maenas, UniProt A0A2L0WQE5); assay: Aequorin luminescence Ca2+ mobilization in CHO-K1-Aeq cells transiently expressing CRZR; assay type: cell-based; details: for pEC50: CHO-K1-Aeq cells (without Gα16) transiently expressing CRZR, luminescence response normalized to total Ca2+ response, dose response curves, means of n = 4; for bioluminescent response at CRZR compared with the homologous crab/insect ligand (Arg^7-CRZ): several independent experiments
T2 sequence (A0A2L0WQE5 1-617): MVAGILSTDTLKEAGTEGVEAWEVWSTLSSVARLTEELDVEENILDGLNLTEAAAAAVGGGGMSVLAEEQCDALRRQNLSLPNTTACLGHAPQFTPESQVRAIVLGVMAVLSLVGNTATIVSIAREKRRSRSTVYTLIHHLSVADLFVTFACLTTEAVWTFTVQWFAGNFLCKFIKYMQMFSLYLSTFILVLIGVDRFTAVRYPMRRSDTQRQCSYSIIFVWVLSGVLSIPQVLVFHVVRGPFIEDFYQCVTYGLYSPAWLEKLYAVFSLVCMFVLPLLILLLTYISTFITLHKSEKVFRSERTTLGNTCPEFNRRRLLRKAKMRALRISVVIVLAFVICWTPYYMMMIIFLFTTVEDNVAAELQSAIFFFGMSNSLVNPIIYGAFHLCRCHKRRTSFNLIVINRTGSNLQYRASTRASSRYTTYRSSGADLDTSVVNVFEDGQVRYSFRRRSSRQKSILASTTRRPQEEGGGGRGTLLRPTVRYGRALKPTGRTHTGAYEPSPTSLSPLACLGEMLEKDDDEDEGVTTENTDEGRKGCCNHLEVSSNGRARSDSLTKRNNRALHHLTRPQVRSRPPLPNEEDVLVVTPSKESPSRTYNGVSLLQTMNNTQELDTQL
Method: as §1, §2, §3

Compound: CC(C)C[C@H](NC(=O)[C@@H]1CCC(=O)N1)C(=O)N[C@@H](CC(N)=O)C(=O)N[C@@H](Cc1ccccc1)C(=O)N[C@H](C(=O)N1CCC[C@H]1C(=O)N[C@@H](CC(N)=O)C(=O)N[C@@H](Cc1c[nH]c2ccccc12)C(=O)NCC(=O)N[C@H](C(N)=O)[C@@H](C)O)[C@@H](C)O [Lom AKH-1, reference compound] (HELM PEPTIDE1{[Glp].L.N.F.T.P.N.W.G.T.[am]}$$$$V2.0)
- pEC50 [1]: 10.15
- pigment migration (concentration) in red and black epidermal chromatophores [2]: slightly less effective compared to RPCH

Compound: proctolin [reference compound]
- kind of response on semi-isolated hearts (semi-isolated heart; positive control): very pronounced inotropic response
- threshold response on semi-isolated hearts (semi-isolated heart; positive controls, CCAP: most sensitive preparations): about 10^−9 M

Compound: CC[C@H](C)[C@H](NC(=O)[C@@H]1CCC(=O)N1)C(=O)N[C@H](C(=O)N[C@@H](Cc1ccccc1)C(=O)N[C@@H](CO)C(=O)N[C@@H](CCCNC(=N)N)C(=O)N[C@@H](CO)C(=O)N[C@@H](Cc1c[nH]c2ccccc12)C(=O)N[C@H](C(=O)N1CCC[C@H]1C(=O)N[C@@H](CCC(N)=O)C(N)=O)C(C)C)[C@@H](C)O [ACP] (HELM PEPTIDE1{[Glp].I.T.F.S.R.S.W.V.P.Q.[am]}$$$$V2.0)
- pEC50 [1]: < 4.70
- binding to / activation of RPCHR [1]: vanishingly small dose-dependent binding
- hemolymph triglyceride levels, 0 min ([3]; injection 100 pmol per crab, 0 min, mean ± 1 SEM, n = 6, SEM): 1.47 ± 0.44 µg/µL
- hemolymph triglyceride levels, 90 min ([3]; injection 100 pmol per crab, 90 min, mean ± 1 SEM, n = 6, no significant change over 90 min, SEM): 1.28 ± 0.34 µg/µL
- activity on circulating triglycerides ([3]; injection 100, 10 pmol per crab): neither CRZ nor ACP exhibited any biological activity
- cardioacceleratory effect on semi-isolated hearts (semi-isolated heart; concentrations up to 10^−6 M, 20°C): completely without cardioacceleratory effect
- activity on circulating glucose [4]: neither CRZ nor ACP exhibited any biological activity
- binding to putative ACPR [5]: did not bind
- pigment migration (concentration) in red and black epidermal chromatophores [2]: completely ineffective
- effect on hemolymph diacylglycerol levels [6]: completely without effect

Compound: GnRH: evolutionarily-related peptide (mammalian) GnRH, gonadotropin releasing hormone [reference compound]
- binding to / activation of RPCHR [1]: Neither receptor was activated
- activation of CRZR ([7]; even at micromolar concentrations): Neither receptor was activated

Compound: NSELINSILGLPKVMNDA-NH2 [PDH, C. maenas pigment dispersing hormone, reference compound]
- pigment dispersion of chromatophores ([2]; injection of 5 pmol, over 40 min): expansion of both red and black chromatophores

Compound: C[C@@H](O)[C@H](NC(=O)[C@H](Cc1c[nH]c2ccccc12)NC(=O)CNC(=O)[C@H](Cc1c[nH]cn1)NC(=O)[C@H](CO)NC(=O)[C@H](Cc1ccc(O)cc1)NC(=O)[C@H](CCC(N)=O)NC(=O)[C@H](Cc1ccccc1)NC(=O)[C@@H](NC(=O)[C@@H]1CCC(=O)N1)[C@@H](C)O)C(=O)N[C@@H](CC(N)=O)C(N)=O [His^7-CRZ] (HELM PEPTIDE1{[Glp].T.F.Q.Y.S.H.G.W.T.N.[am]}$$$$V2.0)
- pEC50 [7]: 9.52
- bioluminescent response at CRZR compared with the homologous crab/insect ligand (Arg^7-CRZ) [7]: somewhat higher bioluminescent response at lower doses

Compound: C[C@@H](O)[C@H](NC(=O)[C@H](Cc1c[nH]c2ccccc12)NC(=O)CNC(=O)[C@H](Cc1c[nH]cn1)NC(=O)[C@H](CO)NC(=O)[C@H](Cc1ccc(O)cc1)NC(=O)[C@@H](NC(=O)[C@H](Cc1ccccc1)NC(=O)[C@@H](NC(=O)[C@@H]1CCC(=O)N1)[C@@H](C)O)[C@@H](C)O)C(=O)N[C@@H](CC(N)=O)C(N)=O [Thr^4, His^7-CRZ] (HELM PEPTIDE1{[Glp].T.F.T.Y.S.H.G.W.T.N.[am]}$$$$V2.0)
- pEC50 [7]: 9.85
- bioluminescent response at CRZR compared with the homologous crab/insect ligand (Arg^7-CRZ) [7]: somewhat higher bioluminescent response at lower doses
